Earlier results as cited in US20030049320A1, “Novel in-situ forming controlled release microcarrier delivery system” (priority 2000, published 2003).

Details: intravenously as a solution, reported in the literature

CC(=O)O[C@H]1C(=O)[C@@]2(C)[C@H]([C@H](OC(=O)c3ccccc3)[C@]3(O)C[C@H](OC(=O)[C@H](O)[C@@H](NC(=O)c4ccccc4)c4ccccc4)C(C)=C1C3(C)C)[C@]1(OC(C)=O)CO[C@@H]1C[C@@H]2O [paclitaxel]
Plasma elimination half-life of paclitaxel: 1.1 h
